Patent US11352391B2, “Compositions for inducing urinary voiding and defecation” (Dignify Therapeutics, LLC, priority 2017, dated 2022)
Where two headings read alike, the source gives them in different places. Where a SMILES comes first, the peptide text is derived from it. Where no end group is shown, it is not given here.

Columns and labels:
[1] = Saline solubility of heptapeptides; format: physicochemical
Description: Heptapeptides A-K shown below in Table 1 (SEQ ID NOs: 1-11) were synthesized according to standard Fmoc-mediated solid-phase techniques and purified under typical C18 reverse-phase conditions.
Compounds D-K were considered to be insoluble in saline (<1 mg/mL).

[2] = target: recombinant hNK1R expressed in CHO cells (Homo sapiens, UniProt P25103); test: Intracellular calcium mobilization (FLIPR) in CHO-hNK1 cells; format: cell-based
Description: (§1) CHO-hNK1 and CHO-hNK2 cells were seeded into black walled clear-bottom 384-well plates) at a density of 10,000 and 15,000 cells per well in 50 μL culture media, respectively, and grown overnight at 37° C. in a humidified CO2-incubator. Cells were washed in washing buffer using the EMBLA 384 instrument, leaving 20 μL of buffer per well after the final aspiration. Cells were then incubated at 37° C. with the cytoplasmic Ca2+ indicator Fluo-4 AM (final concentration 1 μM) in assay buffer (20 mM HEPES, 145 mM NaCl, 5 mM KCl, 5.5 mM glucose, 1 mM MgCl2 and 2 mM CaCl2, pH 7.4, 0.05% Pluronic F-127 and 0.1% BSA) containing 2.5 mM probenecid for […] (cell loading). Cells were then washed 3 times in washing buffer (20 mM HEPES, 145 mM NaCl, 5 mM KCl, 5.5 mM glucose, 1 mM MgCl2 and 2 mM CaCl2, pH 7.4 and 2.5 mM probenecid) using the EMBLA 384 instrument, leaving 30 μL of buffer in each well after the last wash. Loaded cell plates were transferred to the FLIPR machine and calcium responses were monitored as described below. A dual read-out FLIPR protocol was used, allowing for characterization of both agonist and antagonist profiles. For quality control, in each compound plate the signal was monitored by evaluating the responses to the reference standards (NKA and Substance P).
(§2) Concentration response curves of compounds were run in duplicate on two different occasions from the same stock solutions. Test solutions were prepared from 10 mM stock solutions in DMSO and 1 μL of each solution was stamped into V-bottom assay plates containing 49 μL assay buffer. The final concentration of DMSO was 0.5% in each well.

[3] = target: T1, recombinant hNK2R expressed in CHO cells (Homo sapiens, UniProt P21452); test: Intracellular calcium mobilization (FLIPR) in CHO-hNK2 cells; format: cell-based; settings: for hNK2 selectivity ratio: ratio of EC50s hNK1R/hNK2R
T1 sequence (P21452 1-398): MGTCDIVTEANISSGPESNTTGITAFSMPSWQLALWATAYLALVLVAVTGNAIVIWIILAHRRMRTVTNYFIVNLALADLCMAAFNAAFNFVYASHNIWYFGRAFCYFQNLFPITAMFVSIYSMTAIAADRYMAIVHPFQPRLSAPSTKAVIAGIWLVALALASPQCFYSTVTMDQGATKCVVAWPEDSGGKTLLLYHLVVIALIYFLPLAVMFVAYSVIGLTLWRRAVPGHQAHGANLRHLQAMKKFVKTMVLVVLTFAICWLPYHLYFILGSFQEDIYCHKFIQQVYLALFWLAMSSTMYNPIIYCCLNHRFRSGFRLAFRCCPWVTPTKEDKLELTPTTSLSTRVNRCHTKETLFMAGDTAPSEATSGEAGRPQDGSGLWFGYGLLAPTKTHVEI
Description: as §1, §2

[4] = Pharmacokinetics in rat plasma after cassette IV bolus dosing; settings: Sprague-Dawley, in vivo
Description: The concentrations of compounds (SEQ ID NOS: 1-11) were measured in rat plasma after intravenous (IV) bolus dosing to determine pharmacokinetic profiles of individual compounds.
Animal preparation: In vivo studies were performed in anesthetized adult Sprague Dawley rats. Rats were anesthetized with urethane (1.2-1.4 g/kg subcutaneous injection). Surgical procedures were then performed with the addition of isoflurane anesthesia (0.05-1.5% in 02) as needed. A venous cannula was inserted into the jugular vein for intravenous (IV) administration of compounds.
In vivo dosing and plasma sampling: Compounds were divided into two groups (soluble and insoluble). Each group was dosed as a cassette in which four compounds (100 μg/kg each compound) were combined into a single IV bolus injection to anesthetized adult Sprague-Dawley rats. Soluble compounds were dissolved in saline. Insoluble compounds were dissolved in a 10% ethanol/saline solution. Rats were cassette dosed based on weight using 0.1 mg/mL solutions of individual compounds. Blood samples (700 μL) were collected using a carotid artery cannula into EDTA tubes containing ascorbic acid (final concentration 1%), and plasma was isolated.
Bioanalytical assay: A reversed-phase HPLC with Turbo Ion Spray MS/MS detection method was developed for bioanalysis. Mass spec transition and settings were individually optimized for each compound and then compounds were cassetted for HPLC method development and optimization. [^13C9; ^15N] [Lys5,MeLeu9,Nle10]-NKA(4-10) was used as an internal standard (IS). Analyte-to-IS peak area ratios for individual compounds were used to create linear calibration curves (1-20 ng/mL) using 1/×2 weighted least-squares regression analysis for evaluation of method linearity, precision and accuracy. For plasma concentration measurements, plasma samples were spiked with IS, processed by extraction, and analyzed using LC-MS/MS. Positive (M+H)+ ions for individual compounds and IS were monitored in MRM mode.

[5] = target: human NK1 Receptor (hNK1R) (Homo sapiens, UniProt P25103); test: [3H]-septide radioligand competition binding to human recombinant NK1Rs (CHO-hNK1 membranes)
Description: (§3) After removal of the supernatant the cell pellet was washed and collected by re-suspension in PBS and centrifugation.
(§4) Frozen pellets were thawed and homogenized in 10 volumes (w/v) of membrane preparation buffer (50 mM HEPES pH 7.4, 1 mM EDTA, 50 μg/mL bacitracin and protease inhibitors) using a Polytron Ultraturrax (twice for 15 s per cycle). […] Protein concentration was determined using BioRad Protein Assay (Milan, Italy) with a BSA standard curve.

[6] = target: T2, human NK2 Receptor (hNK2R) (Homo sapiens, UniProt P21452); test: [125I]-NKA radioligand competition binding to human recombinant NK2Rs (CHO-hNK2 membranes); settings: for hNK2 selectivity ratio: ratio of Kis hNK1R/hNK2R
T2 sequence (P21452 1-398): T1 sequence (P21452 1-398)
Description: as §3, §4

anesthetized dog = test: Colorectal pressure manometry in anesthetized dog; format: in vivo
Description: Animal preparation: Naïve beagle dogs were fasted for 12-24 hours and received a warm water enema the night prior to, and the morning of, the experiment to clear the rectum and lower colon of feces. The day of the experiment, a 20 gauge IV catheter (Terumo Surflo) was placed in the cephalic vein for anesthetic induction (propofol, 10 mg/kg; IV) and delivery of IV fluids (5-10 ml/kg/hr) and compounds. The sedated dog was intubated with a 5-6 Fr tracheal tube and was maintained on 2-3% isoflurane via a ventilator (15-25 breaths/min; tidal volume […]) for the remainder of the experiment.
Bowel contractility: For colorectal pressure manometry, an ˜3 inch balloon catheter was inserted into the rectum and secured to the tail with tape. This catheter was connected via a three-way stopcock to a pressure transducer (UTAH MEDICAL PRODUCTS; DelTran II) for pressure recording. Data were recorded using PowerLab/8SP acquisition system using LabChart software (version 7.3.7; ADINSTRUMENTS, Australia). Arterial pressure, ECG, temperature and blood oxygen saturation (spO2) were monitored throughout the experiment (MEDTRONIC LIFEPAK12). Dogs were recovered in a quiet room under veterinary supervision.

[7] = calcium mobilization, CHO-hNK1 cells, read-out: hNK1 EC50
[8] = calcium mobilization, CHO-hNK2 cells, read-out: hNK2 EC50
[9] = displacement of 5.0 nM [3H]-septide, CHO-hNK1 membranes, read-out: hNK1 binding Ki
[10] = displacement of 0.1 nM [125I]-NKA, CHO-hNK2 membranes, read-out: hNK2 binding Ki

Sequence of recombinant hNK1R expressed in CHO cells (P25103 whole entry): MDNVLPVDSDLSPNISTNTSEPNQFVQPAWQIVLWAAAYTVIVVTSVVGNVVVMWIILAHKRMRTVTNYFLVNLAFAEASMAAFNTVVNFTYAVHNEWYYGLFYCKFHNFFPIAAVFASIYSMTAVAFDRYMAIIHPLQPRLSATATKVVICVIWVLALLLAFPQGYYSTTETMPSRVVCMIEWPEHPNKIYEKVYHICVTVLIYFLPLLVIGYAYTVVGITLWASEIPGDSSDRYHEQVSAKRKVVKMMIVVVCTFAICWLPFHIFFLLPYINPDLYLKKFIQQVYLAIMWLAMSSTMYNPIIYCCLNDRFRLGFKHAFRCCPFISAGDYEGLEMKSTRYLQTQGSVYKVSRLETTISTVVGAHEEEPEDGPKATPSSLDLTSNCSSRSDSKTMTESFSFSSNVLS
Sequence of human NK1 Receptor (hNK1R) (P25103 whole entry): as above

Row | Ki [5, 9] [nM] | Ki [6, 10] [nM] | half-life ([4]; iv) [min] | Molecule | solubility [1] [µg/mL] | EC50 [2] [nM] | EC50 [3] [nM] | hNK2 selectivity ratio [3] | level at 10 min ([4]; 100 ug/kg, cassette IV bolus 100 μg/kg, by 10 min post-dose, read-out: plasma concentration) [ng/mL] | half-life ([4]; cassette IV bolus, 100 μg/kg each compound, read-out: plasma t1/2) [min] | Ki [5] [nM] | Ki [6] [nM] | hNK2 selectivity ratio [6] | EC50 [2, 7] [nM] | EC50 [3, 8] [nM] | duration of colorectal pressure response (anesthetized dog; IV bolus (B and E 3 μg/kg; G 3, 30 and 66 ug/kg)) | onset of increase in colorectal pressure (anesthetized dog; IV bolus (E 3 μg/kg; G 3, 30 and 66 ug/kg)) [min]
1 | – | – | – | CSCC[C@H](NC(=O)[C@H](CC(C)C)N(C)C(=O)CNC(=O)[C@@H](NC(=O)[C@H](Cc1ccccc1)NC(=O)[C@H](CCCCN)NC(=O)[C@@H](N)CC(=O)O)C(C)C)C(N)=O [A, Asp-Lys-Phe-Val-Gly-(NMe-Leu)-Met-NH2] | > 20000 | 0.95 | 0.14 | 7 | < 1 | 0.2 to 1.2 | 50.1 | 0.2 | 248.89 | – | – | – | –
2 | 20.9 | 0.12 | – | CSCC[C@H](NC(=O)[C@H](CC(C)C)N(C)C(=O)CNC(=O)[C@@H](NC(=O)[C@H](Cc1ccccc1)NC(=O)[C@H](CCCNC(=N)N)NC(=O)[C@@H](N)CC(=O)O)C(C)C)C(N)=O [C, Asp-Arg-Phe-Val-Gly-(NMe-Leu)-Met-NH2] (HELM PEPTIDE1{D.R.F.V.G.[meL].M.[am]}$$$$V2.0; N-terminus assumed) | > 20000 | – | – | 2 | – | – | – | – | 167.49 | 0.3 | 0.16 | – | –
3 | 257 | 2.11 | 3.3 to 4.7 | CSCC[C@H](NC(=O)[C@H](CC(C)C)NC(=O)CCNC(=O)[C@@H](NC(=O)[C@H](Cc1ccccc1)NC(=O)[C@H](CCCCN)NC(=O)[C@@H](N)CC(=O)O)C(C)C)C(N)=O [Compound E, Asp-Lys-Phe-Val-(β-Ala)-Leu-Met-NH2] (HELM PEPTIDE1{D.K.F.V.[bAla].L.M.[am]}$$$$V2.0; N-terminus assumed) | < 1000 | – | – | 36 | – | – | – | – | 122.04 | 6.31 | 0.18 | approximately 4 minutes | ≤ 1
4 | – | – | – | CSCC[C@H](NC(=O)[C@H](CC(C)C)NC(=O)CNC(=O)[C@@H](NC(=O)[C@H](Cc1ccccc1)NC(=O)[C@H](CCCCN)NC(=O)[C@@H](N)CC(=O)O)C(C)C)C(N)=O [D, Asp-Lys-Phe-Val-Gly-Leu-Met-NH2] | < 1000 | – | – | – | – | – | – | – | – | 0.41 | 0.09 | – | –
5 | – | – | – | CCCC[C@H](NC(=O)[C@H](CC(C)C)NC(=O)CNC(=O)[C@@H](NC(=O)[C@H](Cc1ccccc1)NC(=O)[C@H](CCCCN)NC(=O)[C@@H](N)CC(=O)O)C(C)C)C(N)=O [F, Asp-Lys-Phe-Val-Gly-Leu-Nle-NH2] | < 1000 | – | – | 6 | – | – | 224 | 2.75 | 81.47 | 2.36 | 0.38 | – | –
6 | 95.5 | 0.88 | – | CSCC[C@H](NC(=O)[C@H](CC(C)C)NC(=O)CCNC(=O)[C@@H](NC(=O)[C@H](Cc1ccccc1)NC(=O)[C@H](CCCNC(=N)N)NC(=O)[C@@H](N)CC(=O)O)C(C)C)C(N)=O [I, Asp-Arg-Phe-Val-(β-Ala)-Leu-Met-NH2] (HELM PEPTIDE1{D.R.F.V.[bAla].L.M.[am]}$$$$V2.0; N-terminus assumed) | < 1000 | – | – | 12 | – | – | – | – | 108.27 | 1.83 | 0.15 | – | –
7 | – | – | – | CCCC[C@H](NC(=O)[C@H](CC(C)C)NC(=O)CNC(=O)[C@@H](NC(=O)[C@H](Cc1ccccc1)NC(=O)[C@H](CCCNC(=N)N)NC(=O)[C@@H](N)CC(=O)O)C(C)C)C(N)=O [J, Asp-Arg-Phe-Val-Gly-Leu-Nle-NH2] (HELM PEPTIDE1{D.R.F.V.G.L.[Nle].[am]}$$$$V2.0; N-terminus assumed) | < 1000 | – | – | 9 | – | – | 126 | 1.74 | 72.53 | 1.71 | 0.2 | – | –
8 | 1200 | 6.85 | 3.3 to 4.7 | CCCC[C@H](NC(=O)[C@H](CC(C)C)NC(=O)CCNC(=O)[C@@H](NC(=O)[C@H](Cc1ccccc1)NC(=O)[C@H](CCCNC(=N)N)NC(=O)[C@@H](N)CC(=O)O)C(C)C)C(N)=O [K, Asp-Arg-Phe-Val-(β-Ala)-Leu-Nle-NH2] (HELM PEPTIDE1{D.R.F.V.[bAla].L.[Nle].[am]}$$$$V2.0; N-terminus assumed) | < 1000 | – | – | 25 | – | – | – | – | 175.59 | 29.5 | 1.16 | – | –
9 | – | – | – | DRFVGLM-NH2 [H, Asp-Arg-Phe-Val-Gly-Leu-Met-NH2] | < 1000 | – | – | 0.8 | – | – | 8.32 | 0.31 | 27.10 | 0.16 | 0.19 | – | –
